Experimental data published in PubChem BioAssay AID1963845 (Molecular Pharmacology Branch, DTP, NCI, 2024).
“And” between values parts separate entries of the source, which are not always exact repeats. Identical values can stand only once.

System: 429239-143-T-J1-PDC complex spheroid viability
Test: Anticancer human tumor 429239-143-T-J1-PDC patient-derived small cell lung carcinoma cell line growth inhibition [POLQ]
Conditions: for viability, T/C: stronger effect = lower value
Protocol: Multicellular complex tumor spheroid response to Polymerase (POL) inhibitors (novobiocin, ART-558, RP6685) in combination with a variety of drugs and investigational agents in selected tumor cell lines
The POL inhibitors (novobiocin, ART-558, and RP6685) were evaluated both individually and in combination with standard of care and investigational anticancer small molecules within a complex spheroid model of solid tumors. . Complex spheroids include a stromal component modeled by human endothelial cells (HUVEC) and fibroblasts modeled by human mesenchymal stem cells (MSCs). The concentration ranges selected for each drug and investigational agent were based upon clinically achievable concentrations if the clinical Cmax of the agent was known.
Compounds. The drugs and investigational agents: novobiocin (NSC847541), ART-558 (NSC835418), RP-6685 (NSC848927), peposertib (NSC802822), ceralasertib (NSC780249), elimusertib (NSC800525), camonsertib (NSC841442), AZD-1390 (NSC803789), olaparib (NSC753686), talazoparib (NSC767125), rucaparib (NSC756644), sotorasib (NSC818433), MRTX-1133 (NSC836407), SN-38 (NSC673596), topotecan (NSC609699), epotoside (NSC141540), doxorubicin (NSC123127), gemcitabine (NSC613327), 5-fluorouracil (NSC19893), paclitaxel (NSC125973), vemurafenib (NSC761431), MSA-2 (NSC828583), SN-011 (NSC837082), adavosertib (NSC754352), prexasertib (NSC758257), carboplatin (NSC241240) and oxaliplatin (NSC266046), were obtained from the National Cancer Institute (NCI) Developmental Therapeutics Program Chemical Repository (21). The FDA-approved anticancer drug set is available from the Developmental Therapeutics Program at https://dtp.cancer.gov/organization/dscb/obtaining/. […] The stock solutions were prepared in dimethyl sulfoxide (DMSO, Sigma-Aldrich, St. Louis, MO, cat. D2650), except for the platinum compounds which were prepared in saline (Quality Biological, Gaithersburg, MD, cat. 114-055-101), at 800-fold the tested concentration and stored at -70 degrees C prior to their use. All drugs and investigational agents were tested over a range starting from a high concentration at or near the clinical Cmax and decreasing in half-log increments. If the clinical Cmax for an agent had not been determined, the highest concentration tested was 10 microM, except for SN-38, which was tested at a high concentration of 1 microM.
Cell Culture. All cells were maintained in an incubator at 37 degrees C and 5% CO2 with 95% humidity. The PDC lines were cultured according to standard operating procedures established by the NCI PDMR (https://pdmr.cancer.gov). Table 3 of the manuscript, lists the cell lines along with the number of the three cell types plated to form the mct-spheroids and media for tumor cell growth. After thawing, all PDC lines, except 997537-175-T-J1-PDC and 415267-285-R-J2-PDC, were cultured in Matrigel-coated flasks prepared with a working solution of 1X Ham's F-12 nutrient mix, without supplementation (Thermo Fisher Scientific, cat. 11765054), 100 U/mL penicillin-streptomycin (Thermo Fisher Scientific, cat. 15140122), and 2.5% Matrigel (Corning Inc., Corning, NY, cat. 354248) for the first three passages. The two PDC lines 997537-175-T-J1-PDC and 415267-285-R-J2-PDC were cultured on uncoated flasks. The 857933-349-R-J2-PDC line was cultured in 6C/Colon 1B media containing advanced DMEM/F-12 (Thermo Fisher Scientific, cat. 12634028), 10 mM HEPES (Thermo Fisher Scientific, cat. 15630080), 1X GlutaMAX supplement (Thermo Fisher Scientific, cat. 35050061), 0.1 mg/mL primocin (InvivoGen, San Diego, CA, cat. ant-pm-2), 10% defined fetal bovine serum, heat inactivated (HyClone Laboratories Inc., Logan, UT, cat. SH30070.03HI), 50% L-WRN conditioned media (ATCC, cat. CRL-3276), 1.25 mM N-Acetyl-L-cysteine (Sigma-Aldrich, cat. A9165), 10 mM nicotinamide (Sigma-Aldrich, cat. N0636), 1X B-27 supplement (Thermo Fisher Scientific, cat. 17504044), 1X N-2 supplement (Thermo Fisher Scientific, cat. […]
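Note: luminescence signal used as surrogate measure of viable cells; spheroids exposed to compounds for seven days before readout.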
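Throughout, for viability, T/C: 100% = DMSO vehicle control viability as luminescence relative to vehicle.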

O=C(Nc1ccc(O)c(NS(=O)(=O)c2ccc(F)cc2)c1)c1ccc(-c2ccccc2)cc1
viability, T/C (compound 0.0316 µM): 100% and 92.5% and 95.2%
viability, T/C (compound 0.1 µM): 106% and 123% and 96.5%
viability, T/C (compound 0.316 µM): 105% and 106% and 107%
viability, T/C (compound 1 µM): 103% and 107% and 99.5%
viability, T/C (compound 3.16 µM): 113% and 122% and 114%
viability, T/C (compound 10 µM): 103% and 119% and 63.5%
IC50 (curve of compound): > 10 µM

CC(C)n1c(=O)n(C)c2cnc3cc(F)c(-c4ccc(OCCCN5CCCCC5)nc4)cc3c21
viability, T/C (compound 0.0316 µM): 99.4% and 102% and 100%
viability, T/C (compound 0.1 µM): 94.7% and 101% (2×)
viability, T/C (compound 0.316 µM): 102% and 94.4% and 86.6%
viability, T/C (compound 1 µM): 89.1% and 102% and 95.7%
viability, T/C (compound 3.16 µM): 91.2% and 99.8% and 90.1%
viability, T/C (compound 10 µM): 60.3% and 99.5% and 74.6%
IC50 (curve of compound): > 10 µM

CC1COCCN1c1cc(-c2ccnn2C)c2ccnc(-c3ccn[nH]3)c2n1 (centres undefined)
viability, T/C (compound 0.0316 µM): 81.5% and 81.3% and 92.4%
viability, T/C (compound 0.1 µM): 50% and 45.1% and 76.5%
viability, T/C (compound 0.316 µM): 27.3% and 28.6% and 65.2%
viability, T/C (compound 1 µM): 13.1% and 16% and 35.1%
viability, T/C (compound 3.16 µM): 10.7% and 9.53% and 5.15%
viability, T/C (compound 10 µM): 10.5% and 9.86% and 3.76%
IC50 (curve of compound): 0.102 µM and 0.0886 µM and 0.527 µM

CC1COCCN1c1cc(C2(S(C)(=N)=O)CC2)nc(-c2ccnc3[nH]ccc23)n1 (centres undefined)
viability, T/C (compound 0.0316 µM): 106% and 91.7% and 104%
viability, T/C (compound 0.1 µM): 99.9% and 108% and 91.8%
viability, T/C (compound 0.316 µM): 94.5% and 93.5% and 97.2%
viability, T/C (compound 1 µM): 70.8% and 83.8% and 71.7%
viability, T/C (compound 3.16 µM): 41.6% and 77.8% and 42.5%
viability, T/C (compound 10 µM): 16.7% and 45.8% and 16.9%
IC50 (curve of compound): 2.27 µM and 8.7 µM and 2.35 µM

Nc1ccn(C2OC(CO)C(O)C2(F)F)c(=O)n1 (centres undefined)
viability, T/C (compound 0.0316 µM): 20% and 68.1% and 17.7%
viability, T/C (compound 0.1 µM): 18.2% and 6.89% and 16%
viability, T/C (compound 0.316 µM): 17.5% and 6.81% and 18.4%
viability, T/C (compound 1 µM): 19.9% and 6.79% and 18.6%
viability, T/C (compound 3.16 µM): 16.3% and 6.33% and 14.9%
viability, T/C (compound 10 µM): 15.8% and 5.46% and 15%
IC50 (curve of compound): < 0.0316 µM and 0.0444 µM

COc1ccc([C@@H](O)c2cc(-c3ncnc4cc(N5CCOCC5)ccc34)c(F)cc2Cl)nn1 + Nc1ccc(C#CCN(C(=O)Cc2ncc(C(F)(F)F)cc2C(F)(F)F)c2ccc(F)cc2)nn1
IC50 (curve of first compound, second compound 0.0316 µM): 9.31 µM
IC50 (curve of first compound, second compound 0.1 µM): 9.66 µM
IC50 (curve of first compound, second compound 0.316 µM): 8.87 µM
IC50 (curve of first compound, second compound 1 µM): > 10 µM
IC50 (curve of first compound, second compound 3.16 µM): 8.13 µM
IC50 (curve of first compound, second compound 10 µM): 7.29 µM
viability, T/C (second compound 0.0316 µM, first compound 0.0316 µM): 92%
viability, T/C (second compound 0.0316 µM, first compound 0.1 µM): 103%
viability, T/C (second compound 0.0316 µM, first compound 0.316 µM): 102%
viability, T/C (second compound 0.0316 µM, first compound 1 µM): 98.8%
viability, T/C (second compound 0.0316 µM, first compound 3.16 µM): 90.1%
viability, T/C (second compound 0.0316 µM, first compound 10 µM): 47.2%
viability, T/C (second compound 0.1 µM, first compound 0.0316 µM): 97.8%
viability, T/C (second compound 0.1 µM, first compound 0.1 µM): 105%
viability, T/C (second compound 0.1 µM, first compound 0.316 µM): 101%
viability, T/C (second compound 0.1 µM, first compound 1 µM): 94.3%
viability, T/C (second compound 0.1 µM, first compound 3.16 µM): 86.1%
viability, T/C (second compound 0.1 µM, first compound 10 µM): 48.4%
viability, T/C (second compound 0.316 µM, first compound 0.0316 µM): 107%
viability, T/C (second compound 0.316 µM, first compound 0.1 µM): 101%
viability, T/C (second compound 0.316 µM, first compound 0.316 µM): 102%
viability, T/C (second compound 0.316 µM, first compound 1 µM): 112%
viability, T/C (second compound 0.316 µM, first compound 3.16 µM): 88.8%
viability, T/C (second compound 0.316 µM, first compound 10 µM): 45.5%
viability, T/C (second compound 1 µM, first compound 0.0316 µM): 97.8%
viability, T/C (second compound 1 µM, first compound 0.1 µM): 86.6%
viability, T/C (second compound 1 µM, first compound 0.316 µM): 97%
viability, T/C (second compound 1 µM, first compound 1 µM): 100%
viability, T/C (second compound 1 µM, first compound 3.16 µM): 84%
viability, T/C (second compound 1 µM, first compound 10 µM): 55.8%
viability, T/C (second compound 3.16 µM, first compound 0.0316 µM): 106%
viability, T/C (second compound 3.16 µM, first compound 0.1 µM): 102%
viability, T/C (second compound 3.16 µM, first compound 0.316 µM): 96.8%
viability, T/C (second compound 3.16 µM, first compound 1 µM): 96.6%
viability, T/C (second compound 3.16 µM, first compound 3.16 µM): 78.7%
viability, T/C (second compound 3.16 µM, first compound 10 µM): 43.5%
viability, T/C (second compound 10 µM, first compound 0.0316 µM): 95.2%
viability, T/C (second compound 10 µM, first compound 0.1 µM): 94.4%
viability, T/C (second compound 10 µM, first compound 0.316 µM): 108%
viability, T/C (second compound 10 µM, first compound 1 µM): 97%
viability, T/C (second compound 10 µM, first compound 3.16 µM): 72.1%
viability, T/C (second compound 10 µM, first compound 10 µM): 41.6%

O=C(c1cc(Cc2n[nH]c(=O)c3ccccc23)ccc1F)N1CCN(C(=O)C2CC2)CC1
viability, T/C (compound 0.0316 µM): 95.1% and 91.7% and 93.1%
viability, T/C (compound 0.1 µM): 82.3% and 93.9% and 102%
viability, T/C (compound 0.316 µM): 68.2% and 72.8% and 97.3%
viability, T/C (compound 1 µM): 69.8% and 78% and 84.5%
viability, T/C (compound 3.16 µM): 30.4% and 29.6% and 69.6%
viability, T/C (compound 10 µM): 16.1% and 16.5% and 9.45%
IC50 (curve of compound): 1.59 µM and 1.93 µM and 4.52 µM
